The values that follow come from patent publication US20260184692A1, “HETEROCYCLIC COMPOUNDS, PREPARATION METHODS AND USES THEREOF” (InventisBio Co., Ltd., priority 2022, published 2026).

A value given as a limit tells only on which side of the number the result lay.

This test has as its system OVCAR3 Cells. Put plainly: OVCAR3 Cell Viability Assay (CellTiter-Glo). It is filed as cell-based. The settings on record: Homo sapiens, OVCAR-3, 144 h, 6 days incubation, read-out: OVCAR3 CTG IC50. The method, then: OVCAR3 Cells (ATCC, Cat #HTB-161) were seeded at a density of 2000 cells/well in a 96-well clear bottom plate (Greiner, Cat #655098) in 100 μL of complete media (RPMI1640+20% FBS+0.01 mg/mL human insulin). One hundred microliter of complete media was added into the blank well (column 1) for low control. Cells were allowed to adhere to the plate overnight in the incubator at 37° C., 5% CO2. On the following day, 0.5 μL of serially-diluted compounds were added to the cells (columns 2-10) and incubated for 6 days at 37 C, 5% CO2 (final 0.5% DMSO concentration); 0.5 μL of DMSO solution was added into the wells (column 11) for high control. Cell viability was detected according to the CellTiter-Glo Luminescent Cell Viability Assay Kit (Promega, Cat #G7573). Luminescence was recorded on the Tecan Spark plate reader. Inhibition rate (IR) of the tested compounds was determined by the following formula: IR (%)=(1−(RLUcompound−RLUlow control)/(RLUhigh control−RLUlow control))×100%. The IC50 value was calculated using the non-linear regression equation: Y=Bottom+(Top−Bottom)/(1+10^((Log IC50−X)×HillSlope)), where X is Log of compound concentration, Y is percent inhibition (IR (%)), Top and Bottom are plateaus in same units as Y.
In general, IC50 refers to the concentration needed to halve the response being measured. Turning to `O=C(Nc1ccc2ncn(CC(F)(F)F)c2c1)c1ccc(NS(=O)(=O)CCO)cc1N1CCC2(CC1)CC2` [Compound 2], the IC50 was less than 200 nM.
`Cc1cc(NC(=O)c2ccc(NS(=O)(=O)CCO)cc2N2C[C@H]3CCC[C@H]3C2)nc(N2CCC(F)(F)CC2)n1` [Compound 8]: the half-inhibitory concentration (IC50) was less than 200 nM.
The value for `Cc1cc(NC(=O)c2ccc(NS(=O)(=O)CCO)cc2N2CC3CCC(C2)O3)nc(N2CCC(F)(F)CC2)n1` [Compound 10] was 200 to 2000 nM.
The value for `O=C1c2ccc(NS(=O)(=O)CCO)cc2C2(CCC3(CC3)CC2)CN1c1cccc(CN2CC(F)(F)C2)n1` [Compound 18] was less than 200 nM.
The value for `O=C1c2ccc(NS(=O)(=O)CCO)cc2C2(CCC3(CC3)CC2)CN1c1cccc(CN2CCC(F)(F)C2)n1` [Compound 19] was less than 200 nM.
Consider `Cn1cc(N2CC3(CCC4(CC4)CC3)c3cc(NS(=O)(=O)CCO)ccc3C2=O)nc1N1CCC(F)(F)CC1` [Compound 20], for which the half-maximal inhibitory concentration (IC50) was in the range of 200 to 2000 nM.
Next, `O=C1c2ccc(NS(=O)(=O)CCO)cc2C2(CCC3(CC3)CC2)CN1c1cccc(OC2CC(F)(F)C2)n1` [Compound 24]: 200 to 2000 nM; `CC(c1cccc(N2CC3(CCC4(CC4)CC3)c3cc(NS(=O)(=O)CCO)ccc3C2=O)n1)N1CCC(F)(F)C1` (stereo not drawn) [Compound 30]: 200 to 2000 nM.
The value for `O=C1c2ccc(NS(=O)(=O)CCO)cc2C2(CCC3(CC3)CC2)CN1c1ccnc(N2CC(F)(F)C2)n1` [Compound 33] was 200 to 2000 nM.
Consider `Cc1cc(N2CC3(CCC4(CC4)CC3)c3cc(NS(=O)(=O)CCO)ccc3C2=O)nc(N2CCC(F)(F)CC2)n1` [Compound 35], for which the IC50 lay in the range of 200 to 2000 nM.
Consider `O=C1c2ccc(NS(=O)(=O)CCO)cc2C2(CCC3(CC3)CC2)CN1c1csc(N2CCC(F)(F)CC2)n1` [Compound 36], for which the IC50 was more than 2000 nM.
The value for `CC1CCN(c2nc(N3CC4(CCC5(CC5)CC4)c4cc(NS(=O)(=O)CCO)ccc4C3=O)ccc2F)CC1` [Compound 37] was 200 to 2000 nM.
Next, `CC1(F)CCN(c2nc(N3CC4(CCC5(CC5)CC4)c4cc(NS(=O)(=O)CCO)ccc4C3=O)ccc2F)CC1` [Compound 40]: less than 200 nM; `O=C1c2cc(F)c(NS(=O)(=O)CCO)cc2C2(CCC3(CC3)CC2)CN1c1ccnc(N2CCC(F)(F)CC2)n1` [Compound 41]: 200 to 2000 nM; `O=C1c2ccc(NS(=O)(=O)CCO)cc2C2(CCC3(CC3)CC2)CN1c1ccc(F)c(NC2CC(F)(F)C2)n1` [Compound 42]: less than 200 nM.
Next, `CN1CCN(c2nc(N3CC4(CCC5(CC5)CC4)c4cc(NS(=O)(=O)CCO)ccc4C3=O)ccc2F)CC1` [Compound 46]: 200 to 2000 nM; `O=C1c2ccc(NS(=O)(=O)CCO)cc2C2(CCC3(CC3)CC2)CN1c1ccc(F)c(N2CCCC(F)(F)CC2)n1` [Compound 47]: less than 200 nM.
On to `O=C1c2ccc(NS(=O)(=O)CCO)cc2C2(CCC3(CC3)CC2)CN1c1cccc(NC2CC(F)(F)C2)n1` [Compound 48], for which the 50% inhibitory concentration (IC50) is less than 200 nM.
Take `CN(c1nc(N2CC3(CCC4(CC4)CC3)c3cc(NS(=O)(=O)CCO)ccc3C2=O)ccc1C#N)C1CC(F)(F)C1` [Compound 49]: the IC50 was less than 200 nM.
Next, `CN(c1nccc(N2CC3(CCC4(CC4)CC3)c3cc(NS(=O)(=O)CCO)ccc3C2=O)n1)C1CCC(F)(F)C1` (stereo not drawn) [Compound 50]: 200 to 2000 nM; `Cc1ccc(N2CC3(CCC4(CC4)CC3)c3cc(NS(=O)(=O)CCO)ccc3C2=O)nc1N1CCC(F)(F)CC1` [Compound 52]: less than 200 nM.
With `O=C1c2ccc(NS(=O)(=O)CCO)cc2C2(CCC3(CC3)CC2)CN1c1cncc(N2CCC(F)(F)CC2)n1` [Compound 54], the IC50 was less than 200 nM.
Take `CC(c1nc(N2CC3(CCC4(CC4)CC3)c3cc(NS(=O)(=O)CCO)ccc3C2=O)ccc1C#N)N1CC(F)(F)C1` (stereo not drawn) [Compound 55]: the IC50 was more than 2000 nM.
The value for `N#Cc1ccc(N2CC3(CCC4(CC4)CC3)c3cc(NS(=O)(=O)CCO)ccc3C2=O)nc1CN1CC(F)(F)C1` [Compound 57] was more than 2000 nM; that for `O=C1c2ccc(NS(=O)(=O)CCO)cc2C2(CCC3(CC3)CC2)CN1c1cncc(NC2CC(F)(F)C2)n1` [Compound 58] was 200 to 2000 nM.
Take `N#Cc1ccc(N2CC3(CCC4(CC4)CC3)c3cc(NS(=O)(=O)CCO)cnc3C2=O)nc1N1CCC(F)(F)CC1` [Compound 59]: the IC50 was in the range of 200 to 2000 nM.
In the case of `O=C1c2ccc(NS(=O)(=O)CCO)cc2C2(CCC3(CC3)CC2)CN1c1ccc2ncn(CC(F)(F)F)c2n1` [Compound 60], the IC50 was in the range of 200 to 2000 nM.
The value for `O=C1c2ccc(NS(=O)(=O)CCO)cc2C2(CCC3(CC3)CC2)CN1c1ccc(F)c(OC2CC(F)(F)C2)n1` [Compound 61] was 200 to 2000 nM; that for `CC1CN(c2nc(N3CC4(CCC5(CC5)CC4)c4cc(NS(=O)(=O)CCO)ccc4C3=O)ccc2C#N)CCO1` (stereo not drawn) [Compound 63] was less than 200 nM; that for `O=C1c2ncc(NS(=O)(=O)CCO)cc2C2(CCC3(CC3)CC2)CN1c1ccnc(N2CCC(F)(F)CC2)n1` [Compound 64] was 200 to 2000 nM.
On to `O=C1c2cc(F)c(NS(=O)(=O)CCO)cc2C2(CCC3(CC3)CC2)CN1c1ccnc(NC2CC(F)(F)C2)n1` [Compound 65], for which the IC50 was 200 to 2000 nM.
Regarding `O=C1c2ccc(NS(=O)(=O)CCO)cc2C2(CCC3(CC3)CC2)CN1c1ccnc(NC2CCCC2)n1` [Compound 66], the concentration for half-maximal inhibition (IC50) is less than 200 nM.
Next, `O=C1c2ccc(NS(=O)(=O)CCO)cc2C2(CCC(F)(F)CC2)CN1c1ccnc(N2CCC(F)(F)CC2)n1` [Compound 67]: 200 to 2000 nM; `O=C1c2ccc(NS(=O)(=O)CCO)nc2C2(CCC3(CC3)CC2)CN1c1ccnc(N2CCC(F)(F)CC2)n1` [Compound 68]: more than 2000 nM; `N#Cc1ccc(N2CC3(CCC4(CC4)CC3)c3nc(NS(=O)(=O)CCO)ccc3C2=O)nc1N1CCC(F)(F)CC1` [Compound 70]: 200 to 2000 nM.
The value for `Cc1ncc(N2CC3(CCC4(CC4)CC3)c3cc(NS(=O)(=O)CCO)ccc3C2=O)nc1N1CCC(F)(F)CC1` [Compound 73] was less than 200 nM; that for `CC1(C)CCC2(CC1)CN(c1ccnc(NC3CC(F)(F)C3)n1)C(=O)c1ccc(NS(=O)(=O)CCO)cc12` [Compound 74] was less than 200 nM; that for `O=C1c2ccc(NS(=O)(=O)CCO)cc2C2(CCC(=C(F)F)CC2)CN1c1ccnc(N2CCC(F)(F)CC2)n1` (stereo not drawn) [Compound 77] was 200 to 2000 nM.
Next, `N#Cc1ccc(N2CC3(CCC(F)(F)CC3)c3cc(NS(=O)(=O)CCO)ccc3C2=O)nc1N1CCC(F)(F)CC1` [Compound 78]: less than 200 nM; `O=C1c2ccc(NS(=O)(=O)CCO)cc2C2(CCC3(CC3)CC2)CN1c1ccnc(N2CC3CCC2C3)n1` (stereo not drawn) [Compound 82]: 200 to 2000 nM; `O=C1c2ccc(NS(=O)(=O)CCO)cc2C2(CCC3(CC3)CC2)CN1c1ccc(=O)n(CC2CC(F)(F)C2)n1` [Compound 83]: 200 to 2000 nM.
Consider `O=C1c2ccc(NS(=O)(=O)CCO)cc2C2(CCC3(CC3)CC2)CN1c1ccnc(NCCC(F)(F)F)n1` [Compound 84], for which the half-maximal inhibitory concentration (IC50) is less than 200 nM.
The value for `N#Cc1ccc(N2CC3(CCC4(CC4)CC3)c3cc(NS(=O)(=O)CCO)ccc3C2=O)nc1NCCC(F)(F)F` [Compound 93] was less than 200 nM; that for `CC1(CNc2nccc(N3CC4(CCC5(CC5)CC4)c4cc(NS(=O)(=O)CCO)ccc4C3=O)n2)COC1` [Compound 96] was 200 to 2000 nM.
As for `O=C1c2ccc(NS(=O)(=O)CCO)cc2C2(CCC(F)(F)CC2)CN1c1ccnc(NC2CC(F)(F)C2)n1` [Compound 97], the IC50 was in the range of 200 to 2000 nM.
